We go through one compound from patent US11478445B2, “Method for treating acute myeloid leukemia” (Bionomics Limited, priority 2017, dated 2022).

Common to all, as to format: cell-based
In one assay the test system is AML cell lines. The assay can be described thus: Mitochondria O2.- assay (MitoSox, flow cytometry). The procedure:
1.25×10^5 cells were harvested into 5 mL tubes and washed with PBS. Cell pellets were resuspended in 180 μL of PBS and 20 μL of freshly prepared 5 mM MitoSox (Molecular Probes, M36008) solution added to each tube. All tubes were incubated at 37° C. for 20 min and then cells washed 3 times with PBS. Cells were resuspended in 300 μL PBS and analysed on an LSRFortessa (BD Biosciences) flow cytometer. Results were analysed with FCS Express 4 Flow Research Edition software (De Novo Software).
For that, cells were plated at 10^6 cells/mL and treated with vehicle (DMSO) alone or a range of doses of EX 1 (0.1 nM, 1 nM, 10 nM and 100 nM) for 6 h, 8 h and 24 h. Cells were harvested for detection of ROS and superoxide anion (O2^·−) levels at 6 h and 24 h, for protein extraction at 8 h and 24 h, and for cell cycle analysis at 24 h.
Total ROS levels were measured by flow cytometry using the fluorogenic dye CM-H2DCFDA at a final concentration of 5 μM. Mitochondria superoxide anion (O2^·−) levels were measured by flow cytometry using MitoSox, also at a final concentration of 5 μM.
In general terms: A flow cytometer gives signals particle by particle.

In a further assay the test system is MV4; 11 AML cell line. The assay can be described thus: MTS proliferation assay, MV4;11. The procedure: (§1) The cell lines (MV4; 11 and HL-60) were plated in 96-well plates at 1×10^4 cells/well in 50 uL of complete growth media. Cells were plated in triplicate wells for each dose being tested. EX 1 (in DMSO), Oxi4503 (EndoTherm, Batch #EN09013, in water), CA4P (Selleckchem, Cat #S7204, in water) and Plinabulin (Selleckchem, Cat #S1176, in DMSO) was reconstituted immediately prior to use at 10 mM in appropriate diluent as indicated. The drug was prepared 2× concentrated in media and 50 uL added to respective wells (0.1% DMSO or water, final concentration). After 72 hours, 20 μL of CellTiter 96 AQueous One Solution reagent (Promega cat #G3581) was added to each well and the plate incubated for 2 h at 37° C. before absorbance was measured at 492 nm using a Thermo Multiskan Ascent96/384 Plate Reader.
(§2) To compare the efficacy of EX 1 with other tubulin polymerisation inhibitors, MTS proliferation assays were performed on MV4; 11 and HL-60 AML cell lines (Table 1). […] Cells were cultured with the compounds for 72 hours before viability was measured by the addition of CellTiter 96 AQueous One Solution reagent (Promega cat #G3581) and absorbance measured at 492 nm. IC50 was calculated using the absolute IC50 method in GraphPad Prism 6.

In the next assay the test system is HL-60 AML cell line. In words: MTS proliferation assay, HL-60. The procedure:
as §1, §2
On the technique in general: Formazan colour is commonly taken as a measure of viable cells.

Consider `COc1cc(C(=O)c2c(C)oc3c(O)c(OC)ccc23)cc(OC)c1OC` [EX 1, 2-Methyl-7-hydroxy-3-(3,4,5-trimethoxybenzoyl)-6-methoxybenzofuran], for which the “mitochondria O2.- levels” value with AML cell lines (HL60 and ME1, 6 h) is “showed a decrease in mitochondria O2^·− levels”; with AML cell lines (KG1) it was “did not respond to the drug treatment with any detectable changes”; with AML cell lines (ME1, 24 h), “even greater effect observed at 24 h”; in the assay with AML cell lines (MV4;11 and MOLM13, 24 h), “increased mitochondria O2^·− levels observed at 24 h only”; with AML cell lines (OCI-AML3, 6 h), “slight decrease”; in the assay with AML cell lines (OCI-AML3, 24 h), “appeared to have increased O2^·− levels”. Moreover, the “potency relative to any other VDAs (times more potent)” value is “at least 10 times” in the assay on MV4; 11 AML cell line (MV4-11, 72 h exposure) and “at least 10 times” in the assay with HL-60 AML cell line (HL-60, 72 h exposure). For the same compound, the “IC50 compared with Oxi4503, CA4P and Plinabulin” value was “lowest IC50” with MV4; 11 AML cell line (MV4;11, 72 h) and “lowest IC50” in the assay with HL-60 AML cell line (HL-60, 72 h).
